Reference: patent US7812165B2, “6-substituted pyridoindolone derivatives, production and therapeutic use thereof” (sanofi-aventis, priority 2004, dated 2010)

- melting point: 295 °C
Compound: CCON=Cc1ccc2[nH]c3c(cc(-c4ccc(OC)cc4OC)c(=O)n3C)c2c1 [Compound 7, 3-(2,4-Dimethoxyphenyl)-1-methyl-2-oxo-2,9-dihydro-1H-pyrido[2,3-b]indole-6-carbaldehyde O-ethyloxime]
